The results in this text go back to patent US20260115170A1, “Method of Ameliorating a Symptom or a Disease in a Human Caused by Fungus” (ISHIHARA SANGYO KAISHA, LTD., priority 2020, published 2026).

The MIC is the smallest concentration in the dilution series that meets the test's criterion for growth inhibition. A low value points to greater potency.

In brackets after ≈: the same amount, converted by molar mass.

Holding throughout (format): cell-based
Experiment [1] relates to Malassezia sympodialis (IFM 48588). In words: Test Example 3-1 antifungal activity test, minimum fungicidal concentration after 1 minute. The conditions noted are these: 1 minute contact, CHROMagar medium, 32° C. for 72 hours, read-out: Minimum fungicidal concentration (MFC100). On the procedure:
(§1) Test Microbial Strains: Malassezia furfur (IFM 55951), Malassezia sympodialis (IFM 48588), and Malassezia globosa (IFM 51946) The Malassezia microbe (Malassezia furfur, Malassezia sympodialis, or Malassezia globosa) cultured in a CHROMagar™ Malassezia/Candida Prepared medium (peptone, special enzyme substrate mixture, chloramphenicol, olive oil, agar, manufactured by Kanto Chemical Co., Inc.) for 5 to 7 days was suspended in physiological saline, and a suspension thereof was prepared in such a way as to have an absorbance of 0.025 at 600 nm. Thereto, the test compound dissolved in DMSO was added in such a way as to provide a final concentration of 200, 100, 50, or 25 ppm, and after 1 minute, 10 μL of the suspension and 10 mL of physiological saline were placed in a syringe and stirred, and the syringe was connected to a 37 mm Quality Monitor (manufactured by Pall Corporation) followed by filtration and washing twice with 10 mL of physiological saline. The membrane filter was removed from the Quality Monitor, placed on a CHROMagar™ Malassezial Candida Prepared medium, and was subjected to culturing at 32° C. for 72 hours, the presence or absence of colony growth was investigated, and the minimum fungicidal concentration (MFC100) was determined.

Experiment [2] relates to Malassezia globosa (IFM 51946). The experiment is described as above. Conditions: 1 minute contact, CHROMagar medium, 32° C. for 72 hours, read-out: Minimum fungicidal concentration (MFC100). On the procedure:
as §1

Experiment [3] relates to Malassezia furfur (IFM 55951). Described as above. The conditions noted are these: 1 minute contact, CHROMagar medium, 32° C. for 72 hours, read-out: Minimum fungicidal concentration (MFC100). On the procedure: as §1
Experiment [4] deals with Microsporum canis (IFM63627). Nature of the experiment: Test Example 4 antifungal activity test, minimum inhibitory concentration (MIC100). The conditions noted are these: Sabouraud medium, 32° C. for 72 hours. On the procedure: (§2) Test Microbial Strains: Trichophyton rubrum (ATCCMYA4607), and Microsporum canis (IFM63627)
(§3) The antifungal activity was studied by partially modifying the method of Test Example 2. Trichophyton rubrum was cultured in a Sabouraud medium and Microsporum canis was cultured in a 1/10 Sabouraud medium, at 32° C. for 168 hours to form spores. For Trichophyton rubrum, hyphae were peeled off from the surface of the medium and recovered in a tube, physiological saline (Otsuka Normal Saline; containing 9 g of sodium chloride in 1000 mL) was added, these were wholly admixed using a disposable loop (type 1 (1 μL)) for dispersion, and a spore suspension containing the hyphae was recovered. […] The spore suspensions containing the hyphae of Trichophyton rubrum and Microsporum canis, respectively, were filtered through a cell strainer ((40 μm). The spores were recovered from the filtrate by centrifugation (3500 rpm, 5 minutes) and washed twice with physiological saline, and then a spore suspension was prepared (1×10^7 spores/mL). 10 μL of the spore suspension was inoculated into a Sabouraud medium to which the test compound dissolved in DMSO was added to have a predetermined concentration. Trichophyton rubrum, Microsporum canis was cultured at 32° C. for 72 hours, then the presence or absence of colony growth was investigated, and the minimum inhibitory concentration (MIC100) was determined.

Experiment [5] relates to Trichophyton rubrum (ATCCMYA4607). Described as above. Conditions: Sabouraud medium, 32° C. for 72 hours. The procedure: as §2, §3
Experiment [6] has as its system Malassezia restricta (IFM55992). In words: Test Example 3-2 antifungal activity test, minimum fungicidal concentration after 1 minute. Conditions: 1 minute contact, MLNA medium, 32° C. for 72 hours, read-out: Minimum fungicidal concentration (MFC100). On the procedure: Test Microbial Strain: Malassezia restricta (IFM55992) The Malassezia microbe (Malassezia restricta) cultured in a CHROMagar™ Malassezial Candida Prepared medium (peptone, special enzyme substrate mixture, chloramphenicol, olive oil, agar, manufactured by Kanto Chemical Co., Inc.) for 5 to 7 days was suspended in physiological saline, and a suspension thereof was prepared in such a way as to have an absorbance of 0.025 at 600 nm. Thereto, the test compound dissolved in DMSO was added in such a way as to provide a final concentration of 200, 100, 50, or 25 ppm, and after 1 minute, 10 μL of the suspension and 10 mL of physiological saline were placed in a syringe and stirred, and the syringe was connected to a 37 mm Quality Monitor (manufactured by Pall Corporation) followed by filtration and washing twice with 10 ml of physiological saline. The membrane filter was removed from the Quality Monitor, placed on a Leeming & Notman agar Modified medium (MLNA medium) (peptone, glucose, yeast extract, dried bovine bile, glycerol, glycerin stearate, Tween60, olive oil, agar), and subjected to culturing at 32° C. for 72 hours, the presence or absence of colony growth was investigated, and the minimum fungicidal concentration MFC100) was determined.

The subject of experiment [7] is Microsporum canis (IFM63627). In words: Test Example 5 antifungal activity test, minimum fungicidal concentration (MFC100) by treatment time. The procedure:
as §2
(§4) Trichophyton rubrum was cultured in a Sabouraud medium and Microsporum canis was cultured in a 1/10 Sabouraud medium, at 32° C. for 168 hours to form spores. For Trichophyton rubrum, hyphae were peeled off from the surface of the medium and recovered in a tube, physiological saline (Otsuka Normal Saline; containing 9 g of sodium chloride in 1000 mL) was added, these were wholly admixed using a disposable loop (type 1 (1 μL)) for dispersion, and a spore suspension containing the hyphae was recovered. For Microsporum canis, 10 mL of physiological saline was added directly onto the medium, and the surface was rubbed using a disposable loop to recover a spore suspension containing hyphae. The spore suspensions containing the hyphae of Trichophyton rubrum and Microsporum canis, respectively, were filtered through a cell strainer (\40 μm). The spores were recovered from the filtrate by centrifugation (3500 rpm, 5 minutes) and washed twice with physiological saline, and then a spore suspension was prepared (1×10^7 spores/mL). 10 μL of the spore suspension was inoculated into 90 μL of physiological saline to which test compound dissolved in DMSO was added to have a predetermined concentration. Every time a predetermined time elapsed, 10 μL of a test liquid containing the spores was collected, the spores were recovered by centrifugation (3500 rpm, 5 minutes) and washed twice with physiological saline, and then a 10 μL spore suspension was prepared. The 10 μL spore suspension was spotted onto a Sabouraud medium and subjected to culturing at 32° C. for 72 hours, the presence or absence of colony growth was investigated, and the minimum fungicidal concentration (MFC100) was determined.

The test system of experiment [8] is Trichophyton rubrum (ATCCMYA4607). The experiment is described as above. On the procedure: as §2, §4

On to `Cc1ccc(-c2nc(C#N)[nH]c2Cl)cc1Cl` [Compound No. 6, 5-Chloro-4-(3-chloro-4-methylphenyl)-1H-imidazole-2-carbonitrile], for which the MFC in experiment [1] was found to be 50 µg/mL (≈ 198 µM); in experiment [2], 50 µg/mL (≈ 198 µM); in experiment [3] it was 50 µg/mL (≈ 198 µM); in experiment [6] it was 200 µg/mL (≈ 793 µM); in experiment [7] (Treatment time 24 Hours) it was 50 µg/mL (≈ 198 µM); in experiment [7] (Treatment time 96 Hours), 10 µg/mL (≈ 39.7 µM). The MFC in experiment [8] (Treatment time 1 Hour) was 50 µg/mL (≈ 198 µM); in experiment [8] (Treatment time 48 Hours), 10 µg/mL (≈ 39.7 µM); in experiment [8] (Treatment time 72 Hours), 5 µg/mL (≈ 19.8 µM). Also, the MIC in experiment [4] and in experiment [5] was 5 µg/mL (≈ 19.8 µM) each time.
